Patent publication US8815882B2, “Pyrazole aminopyrimidine derivatives as LRRK2 modulators” (Genentech, Inc., priority 2010, dated 2014)

Target: T1, LRRK2 (Homo sapiens, UniProt Q5S007, G2019S)
T1 construct: purchased Invitrogen PV4882 (lot 567054A)
Assay: In Vitro LRRK2 Assay (LabChip 3000, fluorescently-labeled peptide substrate, ATP)
Assay type: biochemical
Details: read-out: LRRK2 Ki (KI), Table 8
Experimental: This assay was used to determine a compound's potency in inhibiting activity of LRRK2 by determining, Kiapp, IC50, or percent inhibition values. In a polypropylene plate, LRRK2, fluorescently-labeled peptide substrate, ATP and test compound were incubated together. Using a LabChip 3000 (Caliper Life Sciences), after the reaction the substrate was separated by capillary electrophoresis into two populations: phosphorylated and unphosphorylated. The relative amounts of each were quantitated by fluorescence intensity. LRRK2 Ki was determined according to the equation: Y=V0*(1−(x+Ki*(1+S/Km)+Et)/(2*Et)−(((x+Ki*(1+S/Km)+Et)^2−(4*Et*x))^0.5)/(2*Et))). Ki values in Table 4 and elsewhere herein are shown in μM.
Assay conditions and materials used were as follows:
Compound Plate Preparation:
For serial dilutions, 34.6 μl DMSO was added to columns 3-24.
Total and Blank Preparation:
In Complete Reaction Buffer, substrate was diluted to 4 μM. Equal volumes of Complete Reaction Buffer and 4 μM substrate were combined to obtain the blank. Equal volumes of Complete Reaction Buffer and 4 μM substrate were combined and to the combined solution was added 2× final LRRK2 concentration.
To a 50 μl polypropylene plate, 5 μl/well buffer/substrate was added by hand to Blank wells. A Biomek FX was used to start the kinase reaction (“PLK SAR 23 ATP”). The following were added to the appropriate wells:
5 μl/well compound/ATP in Assay Plate;
5 μl/well kinase/substrate in Assay Plate;
The plate was incubated for 2 hours in the dark. Biomek FX was used to stop the kinase reaction (“PLK Stop”), and 10 μl/well Stop solution was added to the Assay Plate. Results were read on the LabChip 3000.
The LabChip 3000 was run using the job “LRRK2 IC50” with the following job settings: […]

T1 sequence (Q5S007 whole entry G2019S): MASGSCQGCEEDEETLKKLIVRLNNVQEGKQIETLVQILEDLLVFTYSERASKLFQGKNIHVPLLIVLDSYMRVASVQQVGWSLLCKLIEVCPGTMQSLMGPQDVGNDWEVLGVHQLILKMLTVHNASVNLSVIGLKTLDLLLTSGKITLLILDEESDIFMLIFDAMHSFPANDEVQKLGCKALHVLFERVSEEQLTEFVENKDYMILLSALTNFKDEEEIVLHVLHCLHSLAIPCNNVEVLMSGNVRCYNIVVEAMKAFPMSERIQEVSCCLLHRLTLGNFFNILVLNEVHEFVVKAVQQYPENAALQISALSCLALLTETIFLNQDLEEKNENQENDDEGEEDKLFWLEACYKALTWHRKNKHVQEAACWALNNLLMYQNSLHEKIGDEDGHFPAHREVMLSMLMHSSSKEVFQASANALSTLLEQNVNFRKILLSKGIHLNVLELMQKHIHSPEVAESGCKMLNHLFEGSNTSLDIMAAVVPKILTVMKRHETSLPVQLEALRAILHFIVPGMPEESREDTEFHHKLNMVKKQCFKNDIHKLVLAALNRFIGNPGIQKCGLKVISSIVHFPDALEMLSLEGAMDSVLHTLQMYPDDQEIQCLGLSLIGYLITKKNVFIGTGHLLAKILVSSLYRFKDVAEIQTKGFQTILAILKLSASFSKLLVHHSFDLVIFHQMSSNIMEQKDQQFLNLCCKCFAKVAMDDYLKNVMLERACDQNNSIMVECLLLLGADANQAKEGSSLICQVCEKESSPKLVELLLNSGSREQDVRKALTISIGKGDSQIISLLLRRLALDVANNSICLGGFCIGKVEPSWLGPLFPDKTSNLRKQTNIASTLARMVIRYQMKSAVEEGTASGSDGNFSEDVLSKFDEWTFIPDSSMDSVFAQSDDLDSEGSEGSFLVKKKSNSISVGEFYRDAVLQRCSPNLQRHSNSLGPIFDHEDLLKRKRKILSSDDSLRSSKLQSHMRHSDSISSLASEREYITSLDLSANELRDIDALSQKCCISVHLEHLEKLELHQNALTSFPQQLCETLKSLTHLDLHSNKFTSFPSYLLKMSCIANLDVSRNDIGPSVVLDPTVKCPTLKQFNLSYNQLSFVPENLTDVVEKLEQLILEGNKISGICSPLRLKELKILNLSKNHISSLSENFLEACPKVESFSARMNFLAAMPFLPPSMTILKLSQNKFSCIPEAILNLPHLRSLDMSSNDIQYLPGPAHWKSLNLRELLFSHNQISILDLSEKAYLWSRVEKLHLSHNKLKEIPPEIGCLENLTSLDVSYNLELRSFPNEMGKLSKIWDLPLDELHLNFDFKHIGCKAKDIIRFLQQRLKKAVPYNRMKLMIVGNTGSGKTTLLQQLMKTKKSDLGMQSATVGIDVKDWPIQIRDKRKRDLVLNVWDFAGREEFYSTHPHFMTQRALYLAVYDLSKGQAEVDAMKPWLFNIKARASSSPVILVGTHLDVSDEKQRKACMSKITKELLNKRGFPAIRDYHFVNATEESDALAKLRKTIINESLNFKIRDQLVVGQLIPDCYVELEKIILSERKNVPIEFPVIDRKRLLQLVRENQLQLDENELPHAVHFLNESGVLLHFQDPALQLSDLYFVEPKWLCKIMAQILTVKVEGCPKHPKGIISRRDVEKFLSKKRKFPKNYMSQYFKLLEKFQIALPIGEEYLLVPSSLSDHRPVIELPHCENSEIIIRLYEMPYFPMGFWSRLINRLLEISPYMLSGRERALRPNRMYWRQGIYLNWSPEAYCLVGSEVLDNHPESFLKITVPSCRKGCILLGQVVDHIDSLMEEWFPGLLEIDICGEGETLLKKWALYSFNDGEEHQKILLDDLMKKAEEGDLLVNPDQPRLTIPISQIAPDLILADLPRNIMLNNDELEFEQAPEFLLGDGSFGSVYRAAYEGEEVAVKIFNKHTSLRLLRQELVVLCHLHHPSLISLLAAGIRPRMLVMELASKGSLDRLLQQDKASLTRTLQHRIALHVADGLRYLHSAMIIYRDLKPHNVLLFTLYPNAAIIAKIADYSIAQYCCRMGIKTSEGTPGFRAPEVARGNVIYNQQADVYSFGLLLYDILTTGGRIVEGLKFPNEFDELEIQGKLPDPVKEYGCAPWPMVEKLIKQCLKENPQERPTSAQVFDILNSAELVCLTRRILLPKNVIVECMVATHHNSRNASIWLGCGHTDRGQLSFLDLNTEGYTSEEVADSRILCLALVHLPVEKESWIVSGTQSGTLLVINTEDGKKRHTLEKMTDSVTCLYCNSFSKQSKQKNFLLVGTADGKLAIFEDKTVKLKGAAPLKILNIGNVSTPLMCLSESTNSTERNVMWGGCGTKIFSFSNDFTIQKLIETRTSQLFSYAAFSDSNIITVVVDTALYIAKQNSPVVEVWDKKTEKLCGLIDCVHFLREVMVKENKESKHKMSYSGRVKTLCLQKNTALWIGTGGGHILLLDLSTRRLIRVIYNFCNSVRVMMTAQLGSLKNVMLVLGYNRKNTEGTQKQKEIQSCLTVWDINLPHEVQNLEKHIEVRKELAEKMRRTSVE

SMILES | Ki [nM]
CNc1nc(Nc2cnn(-c3cc(F)cc(F)c3)c2C)ncc1Br [Example 115, 5-bromo-N2-(1-(3,5-difluorophenyl)-5-methyl-1H-pyrazol-4-yl)-N4-methylpyrimidine-2,4-diamine] | 31
CNc1nc(Nc2cn(-c3cc(F)cc(F)c3)nc2C)ncc1Br [Example 116, 5-bromo-N2-(1-(3,5-difluorophenyl)-3-methyl-1H-pyrazol-4-yl)-N4-methylpyrimidine-2,4-diamine] | 0.3
CNc1nc(Nc2cn(-c3ccccn3)nc2C)ncc1C(F)(F)F [Example 117, N4-methyl-N2-(3-methyl-1-(pyridin-2-yl)-1H-pyrazol-4-yl)-5-(trifluoromethyl) pyrimidine-2,4-diamine] | 6.7
CNc1nc(Nc2cn(CC3(C)COC3)nc2C)ncc1C(F)(F)F [Example 118, N4-methyl-N2-(3-methyl-1-((3-methyloxetan-3-yl)methyl)-1H-pyrazol-4-yl)-5-(trifluoromethyl) pyrimidine-2,4-diamine] | 7.2
CCCn1ncc(Nc2ncc(C(F)(F)F)c(NC)n2)c1C [Example 119, N4-methyl-N2-(5-methyl-1-propyl-1H-pyrazol-4-yl)-5-(trifluoromethyl) pyrimidine-2,4-diamine] | 5.6
CCCn1cc(Nc2ncc(C(F)(F)F)c(NC)n2)c(C)n1 [Example 120, N4-methyl-N2-(3-methyl-1-propyl-1H-pyrazol-4-yl)-5-(trifluoromethyl) pyrimidine-2,4-diamine] | 0.6
CNc1nc(Nc2cn(C(C)C)nc2C)ncc1Br [Example 121, 5-bromo-N2-(1-isopropyl-3-methyl-1H-pyrazol-4-yl)-N4-methylpyrimidine-2,4-diamine] | 3.1
CNc1nc(Nc2cnn(-c3ccc(Cl)cc3)c2C)ncc1Br [Example 122, 5-bromo-N2-(1-(4-chlorophenyl)-5-methyl-1H-pyrazol-4-yl)-N4-methylpyrimidine-2,4-diamine] | 14
CNc1nc(Nc2cnn(-c3ccc(Cl)cc3)c2C)ncc1C(F)(F)F [Example 123, N2-(1-(4-chlorophenyl)-5-methyl-1H-pyrazol-4-yl)-N4-methyl-5-(trifluoromethyl) pyrimidine-2,4-diamine] | 0.3
CNc1nc(Nc2cn(-c3ccc(S(C)(=O)=O)cc3)nc2C)ncc1C(F)(F)F [Example 124, N4-methyl-N2-(3-methyl-1-(4-(methylsulfonyl)phenyl)-1H-pyrazol-4-yl)-5-(trifluoromethyl) pyrimidine-2,4-diamine] | 0.3
CNc1nc(Nc2cnn(-c3ccc(S(C)(=O)=O)cc3)c2C)ncc1C(F)(F)F [Example 125, N4-methyl-N2-(5-methyl-1-(4-(methylsulfonyl)phenyl)-1H-pyrazol-4-yl)-5-(trifluoromethyl) pyrimidine-2,4-diamine] | 4.7
CNc1nc(Nc2cn(C3C[C@@H]4CC[C@@H](C3)O4)nc2C)ncc1C(F)(F)F (stereo partly drawn) [Example 126, N2-(1-((1S,5S)-8-oxabicyclo[3.2.1]octan-3-yl)-3-methyl-1H-pyrazol-4-yl)-N4-methyl-5-(trifluoromethyl) pyrimidine-2,4-diamine] | 113
CCCCn1ncc(Nc2ncc(C(F)(F)F)c(NC)n2)c1C [Example 127, N2-(1-butyl-5-methyl-1H-pyrazol-4-yl)-N4-methyl-5-(trifluoromethyl) pyrimidine-2,4-diamine] | 0.3
CNc1nc(Nc2cn(-c3ncccn3)nc2C)ncc1C(F)(F)F [Example 128, N4-methyl-N2-(3-methyl-1-(pyrimidin-2-yl)-1H-pyrazol-4-yl)-5-(trifluoromethyl) pyrimidine-2,4-diamine] | 11.4
CNc1nc(Nc2cn(-c3ccc(Cl)cc3)nc2C)ncc1C(F)(F)F [Example 129, N2-(1-(4-chlorophenyl)-3-methyl-1H-pyrazol-4-yl)-N4-methyl-5-(trifluoromethyl) pyrimidine-2,4-diamine] | 28
CNc1nc(Nc2cn(CCF)nc2C)ncc1C(F)(F)F [Example 130, N2-(1-(2-fluoroethyl)-3-methyl-1H-pyrazol-4-yl)-N4-methyl-5-(trifluoromethyl) pyrimidine-2,4-diamine] | 1.1
CNc1nc(Nc2cn(C3CCN(C4COC4)CC3)nc2C)ncc1C(F)(F)F [Example 131, N4-methyl-N2-(3-methyl-1-(1-(oxetan-3-yl)piperidin-4-yl)-1H-pyrazol-4-yl)-5-(trifluoromethyl) pyrimidine-2,4-diamine] | 37.4

SMILES | Ki [nM]
CNc1nc(Nc2cnn(CCF)c2C)ncc1C(F)(F)F [Example 133, N2-(1-(2-fluoroethyl)-5-methyl-1H-pyrazol-4-yl)-N4-methyl-5-(trifluoromethyl) pyrimidine-2,4-diamine] | 1.8
CCNc1nc(Nc2cn(C3CCN(C(C)=O)CC3)nc2C)ncc1C(F)(F)F [Example 134, 1-(4-(4-(4-(ethylamino)-5-(trifluoromethyl)pyrimidin-2-ylamino)-3-methyl-1H-pyrazol-1-yl)piperidin-1-yl)ethanone] | 2.2
CNc1nc(Nc2cnn(C3CCN(C(=O)C4CC4)CC3)c2C)ncc1C(F)(F)F [Example 135, cyclopropyl(4-(5-methyl-4-(4-(methylamino)-5-(trifluoromethyl)pyrimidin-2-ylamino)-1H-pyrazol-1-yl)piperidin-1-yl)methanone] | 1
CNc1nc(Nc2cn(C3CCN(C(=O)C4CC4)CC3)nc2C)ncc1C(F)(F)F [Example 136, cyclopropyl(4-(3-methyl-4-(4-(methylamino)-5-(trifluoromethyl)pyrimidin-2-ylamino)-1H-pyrazol-1-yl)piperidin-1-yl)methanone] | 9.3
CCNc1nc(Nc2cnn(C3CCN(C(C)=O)CC3)c2C)ncc1C(F)(F)F [Example 137, 1-(4-(4-(4-(ethylamino)-5-(trifluoromethyl)pyrimidin-2-ylamino)-5-methyl-1H-pyrazol-1-yl)piperidin-1-yl)ethanone] | 0.4
CNc1nc(Nc2cnn(C(C)C)c2Cl)ncc1C(F)(F)F [Example 138, N2-(5-chloro-1-isopropyl-1H-pyrazol-4-yl)-N4-methyl-5-(trifluoromethyl) pyrimidine-2,4-diamine] | 1.1
CCn1ncc(Nc2ncc(C(F)(F)F)c(NC)n2)c1Cl [Example 139, N2-(5-chloro-1-ethyl-1H-pyrazol-4-yl)-N4-methyl-5-(trifluoromethyl) pyrimidine-2,4-diamine] | 2
CNc1nc(Nc2cn(-c3cncnc3)nc2C)ncc1C(F)(F)F [Example 140, N4-methyl-N2-(3-methyl-1-(pyrimidin-5-yl)-1H-pyrazol-4-yl)-5-(trifluoromethyl) pyrimidine-2,4-diamine] | 6.1
CNc1nc(Nc2nn(C3CCN(C)CC3)cc2C)ncc1C(F)(F)F [Example 141, N4-methyl-N2-(4-methyl-1-(1-methylpiperidin-4-yl)-1H-pyrazol-3-yl)-5-(trifluoromethyl) pyrimidine-2,4-diamine] | 41
CNc1nc(Nc2cnn(-c3ccnc(C)c3)c2C)ncc1C(F)(F)F [Example 142, N4-methyl-N2-(5-methyl-1-(2-methylpyridin-4-yl)-1H-pyrazol-4-yl)-5-(trifluoromethyl) pyrimidine-2,4-diamine] | 0.3
CNc1nc(Nc2cn(-c3ccnc(C)c3)nc2C)ncc1C(F)(F)F [Example 143, N4-methyl-N2-(3-methyl-1-(2-methylpyridin-4-yl)-1H-pyrazol-4-yl)-5-(trifluoromethyl) pyrimidine-2,4-diamine] | 6.9
CCNc1nc(Nc2cn(CC3(C)COC3)nc2C)ncc1C(F)(F)F [Example 144, N4-ethyl-N2-(3-methyl-1-((3-methyloxetan-3-yl)methyl)-1H-pyrazol-4-yl)-5-(trifluoromethyl) pyrimidine-2,4-diamine] | 0.9
CNc1nc(Nc2cnn(C3CC3)c2Cl)ncc1C(F)(F)F [Example 145, N2-(5-chloro-1-cyclopropyl-1H-pyrazol-4-yl)-N4-methyl-5-(trifluoromethyl) pyrimidine-2,4-diamine] | 1.7
CNc1nc(Nc2cnn(CC3CC3)c2Cl)ncc1C(F)(F)F [Example 146, N2-(5-chloro-1-(cyclopropyl-methyl)-1H-pyrazol-4-yl)-N4-methyl-5-(trifluoromethyl) pyrimidine-2,4-diamine] | 0.3
CNc1nc(Nc2cnn(-c3ccc(C#N)cc3)c2C)ncc1C(F)(F)F [Example 147, 4-(5-methyl-4-(4-(methylamino)-5-(trifluoromethyl)pyrimidin-2-ylamino)-1H-pyrazol-1-yl)benzonitrile] | 17
CNc1nc(Nc2cn(-c3ccc(C#N)cc3)nc2C)ncc1C(F)(F)F [Example 148, 4-(3-methyl-4-(4-(methylamino)-5-(trifluoromethyl)pyrimidin-2-ylamino)-1H-pyrazol-1-yl)benzonitrile] | 0.3
CNc1nc(Nc2cn(C3CCOC3)nc2C)ncc1C(F)(F)F (stereo not shown) [Example 149, N4-methyl-N2-(3-methyl-1-(tetrahydrofuran-3-yl)-1H-pyrazol-4-yl)-5-(trifluoromethyl) pyrimidine-2,4-diamine] | 6.8
